Values quoted from earlier work as cited in US20240397950A1, “DISINFECTANT COMPOSITION” (OTSUKA PHARMACEUTICAL FACTORY, INC., priority 2018, published 2024).

For N=C(NCCCCCCNC(=N)NC(=N)Nc1ccc(Cl)cc1)NC(=N)Nc1ccc(Cl)cc1.O=C(O)[C@H](O)[C@@H](O)[C@H](O)[C@H](O)CO.O=C(O)[C@H](O)[C@@H](O)[C@H](O)[C@H](O)CO [Chlorhexidine gluconate], the “pH at which a dilute aqueous solution causes precipitation” value is given as no less than 8.
